Measured values: paper PMC6010064, “Discovery of curcumin inspired sulfonamide derivatives as a new class of carbonic anhydrase isoforms I, II, IX, and XII inhibitors” (Journal of Enzyme Inhibition and Medicinal Chemistry, 2017)
Like-named read-outs stand apart in the source and are kept apart here.

What was measured:
Assay in all cases: stopped-flow CO2 hydrase assay
Format in all cases: biochemical
hCA I = molecular target: T1, hCA I (Homo sapiens, UniProt P00915)
T1 construct: gene CA1; recombinant, obtained in-house as reported earlier
Excerpt: stopped-flow CO2 hydrase assay on hCA I

hCA XII = molecular target: T2, hCA XII (Homo sapiens, UniProt O43570)
T2 construct: gene CA12; recombinant, obtained in-house as reported earlier
Excerpt: stopped-flow CO2 hydrase assay on hCA XII

hCA II = molecular target: T3, hCA II (Homo sapiens, UniProt P00918)
T3 construct: gene CA2; recombinant, obtained in-house as reported earlier
Excerpt: stopped-flow CO2 hydrase assay on hCA II

hCA IX = molecular target: T4, hCA IX (Homo sapiens, UniProt Q16790)
T4 construct: gene CA9; recombinant, obtained in-house as reported earlier
Excerpt: stopped-flow CO2 hydrase assay on hCA IX

[1] = pH […] Hepes […], […] Na2SO4, CO2 substrate, […] min preincubation at room temperature

T2 sequence (O43570 25-354): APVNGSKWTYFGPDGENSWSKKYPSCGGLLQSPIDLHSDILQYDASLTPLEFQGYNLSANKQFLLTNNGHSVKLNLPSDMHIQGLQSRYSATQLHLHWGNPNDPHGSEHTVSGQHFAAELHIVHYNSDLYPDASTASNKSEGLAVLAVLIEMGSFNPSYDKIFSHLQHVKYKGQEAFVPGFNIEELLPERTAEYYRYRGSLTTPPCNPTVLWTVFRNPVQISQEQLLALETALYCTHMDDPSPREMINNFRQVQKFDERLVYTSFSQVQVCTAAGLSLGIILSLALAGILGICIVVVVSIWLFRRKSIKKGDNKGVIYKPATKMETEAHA
T1 sequence (P00915 2-261): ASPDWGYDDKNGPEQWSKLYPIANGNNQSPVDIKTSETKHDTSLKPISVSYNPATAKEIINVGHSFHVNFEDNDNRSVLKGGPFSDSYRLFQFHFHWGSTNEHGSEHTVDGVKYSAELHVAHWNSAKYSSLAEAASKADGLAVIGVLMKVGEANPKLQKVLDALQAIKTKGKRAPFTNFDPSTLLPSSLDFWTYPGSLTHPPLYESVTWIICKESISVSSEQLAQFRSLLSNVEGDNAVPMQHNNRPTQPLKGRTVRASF

| Compound | Ki (hCA I) [nM] | Ki (hCA XII) [nM] | Ki (hCA II) [nM] | Ki (hCA IX) [nM] | Ki (hCA II; [1]) [nM] | Ki (hCA I; [1]) [nM] |
| --- | --- | --- | --- | --- | --- | --- |
| CC(C)Oc1ccc(/C=C/C(=O)/C=C/c2ccc(S(N)(=O)=O)cc2)cc1 [5a, 4-((1E,4E)-5-(4-isopropoxyphenyl)-3-oxopenta-1,4-dien-1-yl)benzenesulfonamide] | 417 | 6.1 | 7.9 | 2.3 | – | – |
| COc1ccc(/C=C/C(=O)/C=C/c2ccc(S(N)(=O)=O)cc2)cc1 [5b, 4-((1E,4E)-5-(4-methoxyphenyl)-3-oxopenta-1,4-dien-1-yl)benzenesulfonamide] | 286 | 6.3 | 2.1 | 8.6 | – | – |
| COc1ccc(/C=C/C(=O)/C=C/c2ccc(S(N)(=O)=O)cc2)c(OC)c1 [5c, 4-((1E,4E)-5-(2,4-dimethoxyphenyl)-3-oxopenta-1,4-dien-1-yl)benzenesulfonamide] | 848 | 7.4 | 4.7 | 7.5 | – | – |
| COc1ccc(OC)c(/C=C/C(=O)/C=C/c2ccc(S(N)(=O)=O)cc2)c1 [5d, 4-((1E,4E)-5-(2,5-dimethoxyphenyl)-3-oxopenta-1,4-dien-1-yl)benzenesulfonamide] | 704 | 8.1 | – | 8.4 | 0.89 | – |
| COc1ccc(/C=C/C(=O)/C=C/c2ccc(S(N)(=O)=O)cc2)cc1OC [5e, 4-((1E,4E)-5-(3,4-dimethoxyphenyl)-3-oxopenta-1,4-dien-1-yl)benzenesulfonamide] | 295 | 52.2 | – | 2.3 | 0.75 | – |
| COc1ccc(/C=C/C(=O)/C=C/c2ccc(S(N)(=O)=O)cc2)c(OC)c1OC [5f, 4-((1E,4E)-3-oxo-5-(2,3,4-trimethoxyphenyl)penta-1,4-dien-1-yl)benzenesulfonamide] | – | 71.8 | 3 | 2.4 | – | 192 |
| COc1cc(OC)c(/C=C/C(=O)/C=C/c2ccc(S(N)(=O)=O)cc2)c(OC)c1 [5g, 4-((1E,4E)-3-oxo-5-(2,4,6-trimethoxyphenyl)penta-1,4-dien-1-yl)benzenesulfonamide] | 904 | 7.4 | 0.87 | 2.4 | – | – |
| COc1cc(/C=C/C(=O)/C=C/c2ccc(S(N)(=O)=O)cc2)cc(OC)c1OC [5h, 4-((1E,4E)-3-oxo-5-(3,4,5-trimethoxyphenyl)penta-1,4-dien-1-yl)benzenesulfonamide] | 595 | 25 | 8.8 | 7.8 | – | – |
| NS(=O)(=O)c1ccc(/C=C/C(=O)/C=C/c2ccc(Cl)cc2)cc1 [5i, 4-((1E,4E)-5-(4-chlorophenyl)-3-oxopenta-1,4-dien-1-yl)benzenesulfonamide] | 373 | 31.1 | 8.1 | 87.3 | – | – |
| COc1ccc(/C=C/C(=O)/C=C/c2ccc(S(N)(=O)=O)cc2)c(F)c1 [5j, 4-((1E,4E)-5-(2-fluoro-4-methoxyphenyl)-3-oxopenta-1,4-dien-1-yl)benzenesulfonamide] | 246 | 68 | 8.2 | 61 | – | – |
